Results taken from DBAASP.
≈ marks a conversion by molar mass, not a printed value.

Experiments:
Assay in all cases: ≥ marks a high value that may be exact or a test limit, other limits are often not marked, values filed in µg/mL are converted to µM
[1] = test system: Pseudomonas aeruginosa ATCC 27853
[2] = test system: Staphylococcus epidermidis ATCC 12228
[3] = test system: Enterobacter cloacae ATCC 13047
Candida krusei ATCC 6258 = test system: Candida krusei ATCC 6258
[4] = test system: Staphylococcus aureus ATCC 29213
[5] = test system: Candida glabrata ATCC 90030
[6] = test system: Escherichia coli ATCC 25922
[7] = test system: Enterococcus faecalis ATCC 4028
[8] = test system: Candida albicans ATCC 90028
Xanthomonas citri = test system: Xanthomonas citri
[9] = test system: Agrobacterium tumefaciens GV3101
[10] = test system: Sinorhizobium meliloti USDA 1002
Methylobacterium sp. = test system: Methylobacterium sp.
Escherichia coli UB1005 = test system: Escherichia coli UB1005
[11] = test system: Salmonella enterica subsp. enterica serovar Pullorum C79-13
[12] = test system: Salmonella enterica subsp. enterica serovar Typhi CMCC 50071
[13] = test system: Listeria monocytogenes CMCC 54004
[14] = test system: Staphylococcus aureus ATCC 12600
[15] = test system: Escherichia coli ATCC 11775
[16] = test system: Candida albicans ATCC 14053
[17] = test system: Micrococcus luteus ATCC 49732
Escherichia coli ML-35 = test system: Escherichia coli ML-35
Bacillus megaterium Bm11 = test system: Bacillus megaterium Bm11
[18] = test system: Salmonella enterica subsp. enterica serovar Typhimurium ATCC 14028
Escherichia coli D21 = test system: Escherichia coli D21
[19] = test system: Serratia marcescens ATCC 8100
[20] = test system: Salmonella typhimurium KCTC 1926
[21] = test system: Salmonella enterica subsp. enterica serovar Enteritidis ATCC 13076
[22] = test system: Aspergillus flavus KCTC 6905
[23] = test system: Aspergillus fumigatus KCTC 6145
[24] = test system: Enterococcus faecalis ATCC 29212
[25] = test system: Malassezia furfur KCTC 7744
[26] = test system: Enterococcus faecium ATCC 19434
[27] = test system: Streptococcus mutans KCTC 3065
[28] = test system: Staphylococcus epidermidis KCTC 1917
[29] = test system: Trichosporon beigelii KCTC 7707
[30] = test system: Candida parapsilosis ATCC 22019
Escherichia coli BW25113 = test system: Escherichia coli BW25113
Bacillus subtilis = test system: Bacillus subtilis
[31] = test system: Staphylococcus aureus ATCC BAA-44
[32] = test system: Klebsiella pneumoniae ATCC 13883
Escherichia coli = test system: Escherichia coli
[33] = test system: Streptococcus pyogenes ATCC 19615
[34] = test system: Staphylococcus epidermidis ATCC 51625
[35] = test system: Staphylococcus aureus ATCC 25923

Structure (SMILES): CC[C@H](C)[C@H](NC(=O)[C@H](CC(C)C)NC(=O)[C@H](CCCCN)NC(=O)[C@H](CCCCN)NC(=O)[C@@H](NC(=O)[C@H](CC(C)C)NC(=O)[C@H](CCCCN)NC(=O)[C@@H]1CCCN1C(=O)[C@@H](NC(=O)[C@H](CC(C)C)NC(=O)[C@H](CCCCN)NC(=O)[C@H](Cc1ccccc1)NC(=O)[C@@H](N)Cc1ccccc1)[C@@H](C)CC)C(C)C)C(=O)N[C@@H](CCCCN)C(=O)N[C@@H](C)C(=O)N[C@@H](Cc1ccccc1)C(=O)N[C@@H](CCCCN)C(N)=O [FFKLIPKLVKKLIKAFK]
- MIC [1]: 2.3 µM (≈ 4.74 µg/mL)
- MIC [2]: 2.3 µM (≈ 4.74 µg/mL)
- MIC [3]: 4.7 µM (≈ 9.69 µg/mL)
- MIC (Candida krusei ATCC 6258): 4.7 µM (≈ 9.69 µg/mL)
- MIC [4]: 2.3 µM (≈ 4.74 µg/mL)
- MIC [5]: 4.7 µM (≈ 9.69 µg/mL)
- MIC [6]: 1.2 µM (≈ 2.47 µg/mL)
- MIC [7]: 1.2 µM (≈ 2.47 µg/mL)
- MIC [8]: 4.7 µM (≈ 9.69 µg/mL)

Structure (SMILES): CC[C@H](C)[C@H](NC(=O)[C@H](C)NC(=O)[C@H](CCCCN)NC(=O)[C@@H](NC(=O)[C@H](CC(C)C)NC(=O)[C@H](C)NC(=O)[C@H](CCCCN)NC(=O)[C@H](Cc1ccccc1)NC(=O)[C@@H](NC(=O)[C@H](C)NC(=O)[C@H](CCCCN)NC(=O)CNC(=O)[C@@H](NC(=O)[C@H](CCCCN)NC(=O)[C@@H](NC(=O)[C@@H](NC(=O)[C@H](Cc1ccccc1)NC(=O)[C@H](CCCCN)NC(=O)[C@H](CC(C)C)NC(=O)[C@H](CC(C)C)NC(=O)[C@@H](N)CCCCN)C(C)C)[C@@H](C)O)C(C)C)[C@@H](C)CC)[C@@H](C)CC)C(=O)O [KLLKFVTKVGKAIFKALIKAI]
- MIC (Xanthomonas citri): 3 µM (≈ 6.99 µg/mL)
- MIC [9]: 3 µM (≈ 6.99 µg/mL)
- MIC [10]: 3 µM (≈ 6.99 µg/mL)
- MIC (Methylobacterium sp.): 3 µM (≈ 6.99 µg/mL)

Structure (SMILES): CC(C)C[C@H](NC(=O)[C@H](CCC(N)=O)NC(=O)[C@@H]1CCCN1C(=O)[C@@H](NC(=O)[C@H](CCCCN)NC(=O)[C@H](Cc1ccc(O)cc1)NC(=O)[C@H](CCCCN)NC(=O)[C@H](CCCCN)NC(=O)[C@H](CC(C)C)NC(=O)[C@H](CCCN=C(N)N)NC(=O)[C@@H](N)CC(C)C)C(C)C)C(=O)O [LRLKKYKVPQL]
- MIC (Escherichia coli UB1005): ≥ 128 µM
- MIC [11]: ≥ 256 µM
- MIC [12]: ≥ 256 µM
- MIC [4]: 640 µM (≈ 887 µg/mL)
- MIC [6]: 64 µM (≈ 88.7 µg/mL)
- MIC [13]: ≥ 64 µM

Structure (SMILES): CC(C)[C@H](NC(=O)[C@H](C)NC(=O)[C@H](C)NC(=O)CNC(=O)[C@@H]1CCCN1)C(=O)N[C@@H](Cc1ccccc1)C(=O)N[C@@H](CCCCN)C(=O)O [PGAAVFK]
- MIC [14]: 12 µM (≈ 8.27 µg/mL)
- MIC [15]: 12 µM (≈ 8.27 µg/mL)
- MIC [16]: ≥ 36 µM
- MIC [17]: ≥ 36 µM

Structure (SMILES): CC(C)C[C@H](NC(=O)[C@H](Cc1ccc(O)cc1)NC(=O)[C@@H]1CCCN1C(=O)[C@@H]1CCCN1C(=O)[C@H](CCCN=C(N)N)NC(=O)[C@@H]1CCCN1C(=O)[C@H](CCCN=C(N)N)NC(=O)[C@H](CCCN=C(N)N)NC(=O)[C@@H](N)CCCN=C(N)N)C(=O)N1CCC[C@H]1C(=O)N1CCC[C@H]1C(=O)N[C@@H](CCCN=C(N)N)C(=O)N[C@@H](CCCN=C(N)N)C(=O)N1CCC[C@H]1C(=O)N1CCC[C@H]1C(=O)O [RRRPRPPYLPPRRPP]
- MIC [2]: > 64 µM
- MIC (Escherichia coli ML-35): ≥ 32 µM
- MIC (Bacillus megaterium Bm11): ≥ 32 µM
- MIC [18]: 8 µM (≈ 15.3 µg/mL)
- MIC (Escherichia coli D21): 16 µM (≈ 30.6 µg/mL)
- MIC [19]: ≥ 32 µM

Structure (SMILES): CC(C)C[C@H](NC(=O)[C@H](CCCCN)NC(=O)[C@H](CC(C)C)NC(=O)[C@H](CC(N)=O)NC(=O)[C@H](CC(C)C)NC(=O)[C@H](CCCCN)NC(=O)[C@H](CS)NC(=O)[C@@H]1CCCN1C(=O)[C@@H](N)Cc1ccc(O)cc1)C(=O)NCC(=O)N[C@@H](CCCCN)C(=O)N[C@H](C(=O)N1CCC[C@H]1C(=O)N[C@@H](Cc1ccccc1)C(=O)N[C@@H](Cc1cnc[nH]1)C(N)=O)C(C)C [YPCKLNLKLGKVPFH]
- MIC [1]: 10 µM (≈ 17.6 µg/mL)
- MIC [20]: 5 µM (≈ 8.78 µg/mL)
- MIC [21]: 5 µM (≈ 8.78 µg/mL)
- MIC [22]: 10 µM (≈ 17.6 µg/mL)
- MIC [23]: 10 µM (≈ 17.6 µg/mL)
- MIC [24]: 2.5 µM (≈ 4.39 µg/mL)
- MIC [25]: 5 µM (≈ 8.78 µg/mL)
- MIC [26]: 2.5 µM (≈ 4.39 µg/mL)
- MIC [27]: 5 µM (≈ 8.78 µg/mL)
- MIC [28]: 5 µM (≈ 8.78 µg/mL)
- MIC [8]: 10 µM (≈ 17.6 µg/mL)
- MIC [29]: 5 µM (≈ 8.78 µg/mL)
- MIC [30]: 5 µM (≈ 8.78 µg/mL)
- MIC (Escherichia coli BW25113): 5 µM (≈ 8.78 µg/mL)

Structure (SMILES): CC(C)C[C@H](NC(=O)[C@H](CO)NC(=O)[C@H](CCCN=C(N)N)NC(=O)[C@H](CCCCN)NC(=O)[C@@H](NC(=O)[C@@H](NC(=O)CNC(=O)[C@H](CCCN=C(N)N)NC(=O)[C@H](Cc1cnc[nH]1)NC(=O)[C@H](Cc1c[nH]c2ccccc12)NC(=O)[C@H](Cc1ccccc1)NC(=O)[C@H](Cc1cnc[nH]1)NC(=O)[C@H](Cc1ccc(O)cc1)NC(=O)[C@@H](N)Cc1ccc(O)cc1)C(C)C)[C@@H](C)O)C(=O)N[C@@H](CO)C(=O)N1CCC[C@H]1C(=O)N[C@@H](Cc1cnc[nH]1)C(=O)N[C@@H](CCCN=C(N)N)C(=O)N1CCC[C@H]1C(=O)N[C@@H](CCCN=C(N)N)C(=O)O [YYHFWHRGVTKRSLSPHRPR]
- MIC [1]: 8 µM (≈ 20.6 µg/mL)
- MIC (Bacillus subtilis): 6 µM (≈ 15.5 µg/mL)
- MIC [31]: 30 µM (≈ 77.4 µg/mL)
- MIC [24]: 6 µM (≈ 15.5 µg/mL)
- MIC [32]: 6 µM (≈ 15.5 µg/mL)
- MIC (Escherichia coli): 6 µM (≈ 15.5 µg/mL)
- MIC [18]: 8 µM (≈ 20.6 µg/mL)
- MIC [33]: 15 µM (≈ 38.7 µg/mL)
- MIC [34]: 30 µM (≈ 77.4 µg/mL)
- MIC [35]: 6 µM (≈ 15.5 µg/mL)
